One data set concerns the target T1, MKK7 (MAP2K7) (Homo sapiens, UniProt O14733).
T1 construct: purchased KINOMEscan (DiscoveRx), San Diego, CA
T1 sequence (O14733 1-419): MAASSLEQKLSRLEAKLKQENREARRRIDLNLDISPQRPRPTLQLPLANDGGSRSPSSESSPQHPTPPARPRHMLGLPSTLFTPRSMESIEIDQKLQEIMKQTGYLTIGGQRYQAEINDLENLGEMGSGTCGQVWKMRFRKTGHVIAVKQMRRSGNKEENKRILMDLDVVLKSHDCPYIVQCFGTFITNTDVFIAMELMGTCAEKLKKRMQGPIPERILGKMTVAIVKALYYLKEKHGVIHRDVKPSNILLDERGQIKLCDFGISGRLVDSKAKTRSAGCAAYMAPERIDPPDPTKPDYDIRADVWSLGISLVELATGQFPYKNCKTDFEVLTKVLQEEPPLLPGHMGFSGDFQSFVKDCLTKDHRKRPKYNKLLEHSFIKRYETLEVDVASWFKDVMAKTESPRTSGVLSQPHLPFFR
In words: Quantitative competitive binding assay (KINOMEscan). The settings on record: for remaining binding at 0.05 µM: read-out: Percent control (50 nM); for remaining binding at 0.2 µM: read-out: Percent control (200 nM); for remaining binding at 1 µM: read-out: Percent control (1000 nM); for remaining binding at 10 µM: read-out: Percent control (10 μM).

The target of the next data set is T2, PAK1 (Homo sapiens, UniProt Q13153).
T2 construct: purchased KINOMEscan (DiscoveRx), San Diego, CA
T2 sequence (Q13153 whole entry): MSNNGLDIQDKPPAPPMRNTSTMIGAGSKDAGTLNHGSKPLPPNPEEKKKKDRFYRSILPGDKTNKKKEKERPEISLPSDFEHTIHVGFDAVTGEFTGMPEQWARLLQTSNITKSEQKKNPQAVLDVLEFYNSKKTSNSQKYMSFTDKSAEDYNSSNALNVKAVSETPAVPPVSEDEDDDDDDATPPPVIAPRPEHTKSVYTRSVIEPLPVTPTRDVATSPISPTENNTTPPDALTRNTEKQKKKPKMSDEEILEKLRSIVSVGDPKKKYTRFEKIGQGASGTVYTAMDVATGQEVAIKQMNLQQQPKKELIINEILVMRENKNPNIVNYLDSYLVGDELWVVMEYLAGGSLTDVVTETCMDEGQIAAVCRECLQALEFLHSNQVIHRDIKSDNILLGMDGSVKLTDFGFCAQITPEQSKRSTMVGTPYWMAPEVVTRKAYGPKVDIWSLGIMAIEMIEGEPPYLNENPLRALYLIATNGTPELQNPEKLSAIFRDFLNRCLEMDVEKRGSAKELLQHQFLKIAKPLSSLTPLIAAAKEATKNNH
The description is as above. The conditions noted are these: for remaining binding at 0.05 µM: read-out: Percent control (50 nM); for remaining binding at 0.2 µM: read-out: Percent control (200 nM); for remaining binding at 1 µM: read-out: Percent control (1000 nM); for remaining binding at 10 µM: read-out: Percent control (10 μM).

A further data set relates to SRB12 cells. Briefly: UV-induced apoptosis, FACS Annexin V+, TMRE-low. The conditions noted are these: 1 kJ/m^2 UVB, 1 μM, 24 hr, vs DMSO. It counts as cell-based, human.
For data set [1], the system named is phospho-JNK. In words: Western blot, UV-induced phospho-JNK in cSCC and HaCaT cell lines. It counts as cell-based, human. The settings on record: 1 μM, post-radiation. In general terms: A western blot detects proteins with antibodies after separation by electrophoresis.
Data set [2] relates to epidermal keratinocytes of C57BL/6 mice. Briefly: Acute UVR-induced epidermal apoptosis in mouse skin. The conditions noted are these: in vivo. An excerpt:
(§1) Cutaneous squamous cell carcinomas biopsied from patients treated with or without BRAF-inhibitor were obtained either under clinical trials (Roche) or separate IRB approval (LAB08-0750). Staining levels were quantified by counting positively labeled cells and dividing by the total area of the tumor tissue within each sample. To measure tumor areas, all samples were photographed, tumor cells outlined, and total pixel numbers calculated using included image analysis tools in Adobe Photoshop and standardized to a hemacytometer to convert to mm^2. To measure apoptosis in irradiated skin, pyknotic or dyskeratotic epidermal keratinocytes were counted and normalized to length (mm) of epidermis.

The subject of a further data set is Hairless mice. Briefly: UV-driven cSCC development in chronically-irradiated Hairless mice. It counts as in vivo, mouse. An excerpt: We also used the Hairless mouse model of squamous cell carcinoma to assess whether PLX4720 would affect UV-driven tumor development. This is particularly relevant since it appears that UV exposure is an important initiating event in BRAFi-accelerated cSCC ([Su et al., 2012]). Unlike the DMBA/TPA model, in which lesions almost universally harbor Hras mutations ([Brown et al., 1990]), the Hairless model has a very low frequency of Ras mutation in papillomas and carcinomas ([van Kranen et al., 1995]), more similar to sporadic human cSCC. […] Within 20 days of administration of drug, hyperkeratotic papules were visible on the backs of PLX4720-treated animals (Figure 5A,B), which steadily grew into cSCC over the following several weeks (Figure 5C,D). Within this period of 150 days (78 days of drug treatment), control-treated mice had not yet developed any visible lesions (Figure 5E). […]
Figure 5. […] (A and B) cDNA was reverse-transcribed from total RNA, PCR-amplified with the above primers (B) and analyzed by Sanger sequencing for mutations in both directions. No mutations in Hras, Kras, or Nras were detected in any of the papillomas (n = 5) or carcinomas (n = 3) isolated from PLX4720-treated mice. […]

The target in the next data set is T3, MLK1 (MAP3K9) (Homo sapiens, UniProt P80192).
T3 construct: purchased KINOMEscan (DiscoveRx), San Diego, CA
T3 sequence (P80192 whole entry): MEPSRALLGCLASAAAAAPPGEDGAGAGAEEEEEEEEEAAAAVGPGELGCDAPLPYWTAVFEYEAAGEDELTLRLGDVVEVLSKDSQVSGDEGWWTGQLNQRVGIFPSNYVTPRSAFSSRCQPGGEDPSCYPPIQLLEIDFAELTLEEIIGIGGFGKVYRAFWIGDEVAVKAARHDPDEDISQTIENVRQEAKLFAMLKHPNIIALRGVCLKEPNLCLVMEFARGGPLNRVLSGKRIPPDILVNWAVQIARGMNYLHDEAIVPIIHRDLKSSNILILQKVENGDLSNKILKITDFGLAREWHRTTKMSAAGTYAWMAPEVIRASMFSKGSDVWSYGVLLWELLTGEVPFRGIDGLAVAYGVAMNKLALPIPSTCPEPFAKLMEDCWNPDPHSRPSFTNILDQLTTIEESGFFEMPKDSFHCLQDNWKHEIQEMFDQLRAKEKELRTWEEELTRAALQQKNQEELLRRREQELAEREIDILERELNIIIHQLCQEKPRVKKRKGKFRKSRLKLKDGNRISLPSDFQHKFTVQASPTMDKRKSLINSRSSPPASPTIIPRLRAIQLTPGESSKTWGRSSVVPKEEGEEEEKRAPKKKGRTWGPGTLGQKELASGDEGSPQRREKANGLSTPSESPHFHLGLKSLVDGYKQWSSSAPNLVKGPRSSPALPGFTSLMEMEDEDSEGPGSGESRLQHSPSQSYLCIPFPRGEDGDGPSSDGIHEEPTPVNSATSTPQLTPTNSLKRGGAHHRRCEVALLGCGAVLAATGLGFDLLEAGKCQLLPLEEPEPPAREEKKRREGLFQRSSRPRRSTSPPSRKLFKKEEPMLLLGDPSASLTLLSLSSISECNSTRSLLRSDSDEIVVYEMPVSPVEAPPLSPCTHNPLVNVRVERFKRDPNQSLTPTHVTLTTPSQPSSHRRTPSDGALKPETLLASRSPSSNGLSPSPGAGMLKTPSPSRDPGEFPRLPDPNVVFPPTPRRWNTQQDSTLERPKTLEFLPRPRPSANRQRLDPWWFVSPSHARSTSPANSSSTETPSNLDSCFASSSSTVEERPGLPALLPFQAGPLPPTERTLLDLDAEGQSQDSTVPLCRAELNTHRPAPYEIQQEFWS
The settings on record: read-out: Published biochemical IC50, cited from earlier work.

The next data set has as its target BRAF(V600E) (Homo sapiens, UniProt P15056, V600E). Briefly: biochemical.
A further data set deals with COLO16 cells. In words: Doxorubicin-induced apoptosis, FACS. The settings on record: 1 μM, 24 hr.
Another data set relates to HaCaT cells. Briefly: Doxorubicin-induced apoptosis, FACS. The settings on record: 1 μM, 24 hr.
The test system of data set [3] is phospho-JNK. In words: Western blot of epidermis of irradiated mice. The settings on record: oral gavage 40–80 mg/kg twice a day, 10 kJ/m^2 UVB.
The subject of a further data set is cleaved caspase-3. Briefly: Immunohistochemistry of cSCC from vemurafenib-treated patients vs sporadic cSCC. It counts as in vivo, human. The settings on record: stained cells per mm^2 tumor, p=0.042. As for the experimental part: (§2) Phospho-JNK and cleaved caspase-3 expression were assessed by immunohistochemistry and then quantified following normalization by unit area (mm^2) of tumor tissue (malignant keratinocytes) only (Figure 4A–D, Figure 4—figure supplement 1).
as §1

For data set [4], the system named is phospho-JNK. The data set is described as above. It counts as in vivo, human. The settings on record: stained cells per mm^2 tumor, p=0.013. As to the method: as §2, §1
In the next data set the target is BRK (PTK6) (Homo sapiens, UniProt Q13882). The settings on record: ref Bollag et al., 2010; read-out: Published biochemical IC50; cited from earlier work.
Sequence of BRK (PTK6) (Q13882 whole entry): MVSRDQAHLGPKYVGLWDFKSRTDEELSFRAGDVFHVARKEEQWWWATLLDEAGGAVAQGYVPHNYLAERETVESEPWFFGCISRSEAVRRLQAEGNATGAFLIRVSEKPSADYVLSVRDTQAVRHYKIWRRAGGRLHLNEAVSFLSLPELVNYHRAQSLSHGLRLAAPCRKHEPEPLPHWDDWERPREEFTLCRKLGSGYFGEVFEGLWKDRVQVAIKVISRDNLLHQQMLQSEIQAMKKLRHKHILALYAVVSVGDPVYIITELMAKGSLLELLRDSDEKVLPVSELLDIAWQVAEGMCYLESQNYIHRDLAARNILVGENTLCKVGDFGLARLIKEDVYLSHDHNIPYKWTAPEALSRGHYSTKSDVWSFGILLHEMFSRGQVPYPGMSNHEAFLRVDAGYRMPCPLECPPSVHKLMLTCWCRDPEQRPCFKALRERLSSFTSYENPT
Another data set concerns the target T4, MAP4K4 (Homo sapiens, UniProt O95819).
T4 construct: purchased KINOMEscan (DiscoveRx), San Diego, CA
Also on record: method as in Bollag et al., 2010. The settings on record: ref Bollag et al., 2010; read-out: Published biochemical IC50; cited from earlier work.

The target in a further data set is T5, MEK6 (MAP2K6) (Homo sapiens, UniProt P52564).
T5 construct: purchased KINOMEscan (DiscoveRx), San Diego, CA
T5 sequence (P52564 whole entry): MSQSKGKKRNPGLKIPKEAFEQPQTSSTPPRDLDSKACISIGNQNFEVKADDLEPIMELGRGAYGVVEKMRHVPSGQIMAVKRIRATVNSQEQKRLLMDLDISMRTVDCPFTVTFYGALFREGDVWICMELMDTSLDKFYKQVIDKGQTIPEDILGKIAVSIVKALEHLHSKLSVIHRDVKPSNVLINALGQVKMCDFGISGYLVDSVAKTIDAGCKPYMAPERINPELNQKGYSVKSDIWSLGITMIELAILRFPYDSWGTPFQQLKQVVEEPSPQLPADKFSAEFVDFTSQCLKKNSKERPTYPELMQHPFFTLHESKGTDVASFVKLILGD
Set-up: method as in Bollag et al., 2010. The settings on record: ref Bollag et al., 2010; read-out: Published biochemical IC50; cited from earlier work.

The conditions of data set [5]: 960 mg PO BID, ref Flaherty et al., 2010; cited from earlier work.

“Also recorded” adds a separate entry of the source. Like-named read-outs stand apart in the source and are kept apart here.

Sequence of BRAF(V600E) (P15056 whole entry V600E): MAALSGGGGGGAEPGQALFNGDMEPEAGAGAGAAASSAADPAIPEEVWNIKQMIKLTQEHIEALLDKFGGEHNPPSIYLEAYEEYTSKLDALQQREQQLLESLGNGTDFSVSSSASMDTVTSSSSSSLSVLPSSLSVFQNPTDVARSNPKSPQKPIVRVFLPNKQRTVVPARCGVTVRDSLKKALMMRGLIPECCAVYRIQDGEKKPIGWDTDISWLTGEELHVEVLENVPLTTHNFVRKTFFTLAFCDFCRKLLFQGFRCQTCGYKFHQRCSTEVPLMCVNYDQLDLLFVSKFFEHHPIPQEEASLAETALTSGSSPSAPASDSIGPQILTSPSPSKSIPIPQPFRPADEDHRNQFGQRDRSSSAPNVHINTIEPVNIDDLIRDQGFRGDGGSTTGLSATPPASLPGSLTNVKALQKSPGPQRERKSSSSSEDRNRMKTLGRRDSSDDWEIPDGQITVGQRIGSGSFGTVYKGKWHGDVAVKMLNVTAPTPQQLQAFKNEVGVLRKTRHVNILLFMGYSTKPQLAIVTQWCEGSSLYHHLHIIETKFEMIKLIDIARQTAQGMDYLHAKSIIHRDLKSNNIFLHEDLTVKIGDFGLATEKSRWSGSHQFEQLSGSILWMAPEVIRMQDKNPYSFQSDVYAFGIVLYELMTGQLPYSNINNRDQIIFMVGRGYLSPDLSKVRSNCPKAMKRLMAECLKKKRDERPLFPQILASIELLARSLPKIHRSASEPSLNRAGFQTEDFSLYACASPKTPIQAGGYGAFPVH
T4 sequence (O95819 whole entry): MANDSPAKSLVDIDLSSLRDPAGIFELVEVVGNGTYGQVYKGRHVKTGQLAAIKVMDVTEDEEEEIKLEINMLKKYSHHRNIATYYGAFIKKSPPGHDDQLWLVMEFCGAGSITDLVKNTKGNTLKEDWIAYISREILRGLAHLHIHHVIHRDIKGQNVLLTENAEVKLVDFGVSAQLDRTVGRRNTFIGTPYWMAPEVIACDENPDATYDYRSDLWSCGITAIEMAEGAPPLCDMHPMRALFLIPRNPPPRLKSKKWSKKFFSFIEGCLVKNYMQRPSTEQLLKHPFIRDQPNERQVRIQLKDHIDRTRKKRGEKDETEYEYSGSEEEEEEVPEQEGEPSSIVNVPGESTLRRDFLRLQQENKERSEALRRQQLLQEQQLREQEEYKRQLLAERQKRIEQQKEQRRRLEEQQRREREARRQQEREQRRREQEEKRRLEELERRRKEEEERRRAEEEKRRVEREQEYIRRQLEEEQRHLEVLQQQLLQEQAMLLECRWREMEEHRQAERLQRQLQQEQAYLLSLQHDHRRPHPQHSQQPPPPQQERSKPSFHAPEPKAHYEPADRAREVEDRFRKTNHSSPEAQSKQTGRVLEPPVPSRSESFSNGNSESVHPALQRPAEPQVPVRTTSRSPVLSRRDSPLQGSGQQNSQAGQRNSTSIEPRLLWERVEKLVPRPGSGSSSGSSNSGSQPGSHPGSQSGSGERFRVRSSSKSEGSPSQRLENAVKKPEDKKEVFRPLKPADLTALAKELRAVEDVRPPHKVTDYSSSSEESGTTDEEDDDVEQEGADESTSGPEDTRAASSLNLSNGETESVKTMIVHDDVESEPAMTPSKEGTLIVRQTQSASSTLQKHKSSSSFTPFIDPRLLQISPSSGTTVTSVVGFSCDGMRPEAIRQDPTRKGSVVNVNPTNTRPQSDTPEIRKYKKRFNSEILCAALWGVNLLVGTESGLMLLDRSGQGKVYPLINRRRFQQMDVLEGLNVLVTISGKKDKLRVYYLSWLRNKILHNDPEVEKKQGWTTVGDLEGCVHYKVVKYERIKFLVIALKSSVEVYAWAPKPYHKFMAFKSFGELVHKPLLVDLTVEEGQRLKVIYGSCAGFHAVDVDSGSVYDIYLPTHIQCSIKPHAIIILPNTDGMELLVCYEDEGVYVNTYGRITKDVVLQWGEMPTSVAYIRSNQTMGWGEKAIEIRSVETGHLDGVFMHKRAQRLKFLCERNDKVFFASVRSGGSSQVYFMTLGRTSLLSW

As usually defined, the IC50 is the concentration that gives 50% inhibition. Turning to `CCCS(=O)(=O)Nc1ccc(F)c(C(=O)c2c[nH]c3ncc(Cl)cc23)c1F` [PLX4720], at MKK7 (MAP2K7), the remaining binding at 0.05 µM came out at 100%, the remaining binding at 0.2 µM came to 100%, the remaining binding at 1 µM was 100% and the remaining binding at 10 µM came out at 84%. At PAK1, the remaining binding at 0.05 µM is 93%, the remaining binding at 0.2 µM is 97%, the remaining binding at 1 µM was 83% and the remaining binding at 10 µM is 22%. Besides, the “suppression of UV-induced apoptosis” value in the data set on SRB12 cells is given as “at least 70%”. Moreover, the “UV-induced phospho-JNK levels” value in the data set with phospho-JNK [1] was “significantly suppressed; also recorded: potently suppresses”. The “apoptotic epidermal keratinocytes in irradiated skin” value in data set [2] stood at 4.9 ± 0.3 apoptotic cells/mm skin. Besides, the “reduction in latency of papillomas and cSCC” value with Hairless mice (chronically-irradiated Hairless mice) is “at least 10 weeks”. Further, the “time from start of drug to visible hyperkeratotic papules” value in the data set on Hairless mice (drug-impregnated chow from day 72, 12.5 kJ/m^2 per week UVB) is listed as at most 20 days. Also, the IC50 at MLK1 (MAP3K9) (ref Tsai et al., 2008) is over 5 µM. In addition, the remaining activity at 0.05 µM at BRAF(V600E) (read-out: Percent control (50 nM)) came to 38%. Also, the remaining activity at 0.2 µM at BRAF(V600E) (read-out: Percent control (200 nM)) was found to be 19%. Moreover, the remaining activity at 1 µM at BRAF(V600E) (read-out: Percent control (1000 nM)) is 3.9%. Further, the remaining activity at 10 µM on BRAF(V600E) (read-out: Percent control (10 μM)) worked out at 0.1%. In addition, in the data set with COLO16 cells, the “doxorubicin-induced apoptosis (Annexin V+, TMRE-low cells)” value was “significant decrease in apoptosis”. In addition, the “doxorubicin-induced apoptosis (Annexin V+, TMRE-low cells)” value in the data set with HaCaT cells is listed as “significant decrease in apoptosis”. In addition, the “UV-induced phospho-JNK in epidermis” value in the data set on phospho-JNK [3] is listed as “significantly suppressed”.

On to `CCCS(=O)(=O)Nc1ccc(F)c(C(=O)c2c[nH]c3ncc(-c4ccc(Cl)cc4)cc23)c1F` [vemurafenib], for which the results for the remaining binding at 0.05 µM on MKK7 (MAP2K7) and on PAK1 were 97% and 99%, respectively. For the same compound, the remaining binding at 0.2 µM at MKK7 (MAP2K7) stood at 95%; at PAK1, 98%. The remaining binding at 1 µM was 94% on MKK7 (MAP2K7) and 91% on PAK1. Further, the remaining binding at 10 µM at MKK7 (MAP2K7) amounted to 85%; at PAK1 it was 46%. The “cleaved caspase-3 expression in cSCC of treated patients vs sporadic cSCC” value with cleaved caspase-3 is reported as “significant reductions”. For the same compound, in the data set with phospho-JNK [4], the “phospho-JNK expression in cSCC of treated patients vs sporadic cSCC” value is “significant reductions”. Further, the IC50 is 0.213 µM at BRK (PTK6); over 1 µM on MAP4K4; over 1 µM at MEK6 (MAP2K6); over 1 µM at MLK1 (MAP3K9) (ref Bollag et al., 2010). The “mean sustained serum levels” value in data set [5] is 86 µM.
